In the assay the target is T1, Human autotaxin enzyme (Homo sapiens, UniProt Q13822).
T1 construct: purchased R&D System
In words: Evaluation of autotaxin inhibitor, Method C (18:0 Lyso PC substrate, choline assay, Resorufin fluorescence). Type of assay: biochemical. To be noted: Method C (Test Example 3), read-out: Inhibitory activity (enzyme inhibitory activity, IC50). Put shortly: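 Recombinant human autotaxin with compound and 200 μM 18:0 Lyso PC (stock) in Tris-HCl pH 7.5, NaCl, MgCl2, Triton X-100, 2 h RT. Released choline detected via choline oxidase/peroxidase/Amplex-type reagent, 20 min, resorufin fluorescence 531/598 nm; % inhibition vs no-compound and no-enzyme controls, concentration-response curve.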

Each structure is given as a SMILES string. Bounds are passed on as bounds.

For `CCCCC1CN(CC(=O)NCc2ccnc(O)c2)C(=O)c2cc(-c3ccc(Cl)cc3)nn21` (centres unmarked) [Compound I-0236], the IC50 is ≥ 1000 nM.
In the case of `CCCCCC1CN(Cc2cccc(OCCCN(C)C)c2)C(=O)c2cc(-c3ccc(Cl)cc3)nn21` (centres unmarked) [Compound I-0135], the IC50 fell in the range of 100 to 1000 nM.
As for `CCCOCC1CN(Cc2cccc(C(=O)O)c2)C(=O)c2cc(-c3ccc(Cl)cc3)nn21` (centres unmarked) [Compound I-0176], the figure is < 10 nM.
As to `C[C@H]1CN(Cc2ccc(C#N)cc2)C(=O)c2cc(-c3ccc(Cl)cc3C#N)nn21` [Compound I-0298], the IC50 was in the range of 100 to 1000 nM.
On to `CCCCC1CN(C2CCN(CC(F)(F)F)C2=O)C(=O)c2cc(-c3ccc(Cl)cc3)nn21` (centres unmarked) [Compound I-0264], for which the IC50 lay within 10 to 100 nM.
As to `CCCCCC1CN(CC(=O)N2CCCC2c2ccccc2)C(=O)c2cc(-c3ccc(Cl)cc3)nn21` (centres unmarked) [Compound I-0107], the IC50 is 100 to 1000 nM.
Take `C[C@H]1CN(CC(=O)N2CCCC(C(=O)O)C2)C(=O)c2cc(-c3ccc(Cl)cc3)nn21` (some centres unmarked) [Compound I-0159]: the half-inhibitory concentration (IC50) was ≥ 1000 nM.
`CCCCCC1CN(Cc2ccccc2S(=O)(=O)N2CCOCC2)C(=O)c2cc(-c3ccc(Cl)cc3)nn21` (centres unmarked) [Compound I-0139]: the IC50 is ≥ 1000 nM.
Consider `O=C(O)C1CCN(C(=O)CN2C(=O)c3cc(-c4ccc(Cl)cc4)nn3[C@@H]3CCC[C@@H]32)CC1` [Compound I-0013], for which the IC50 was ≥ 1000 nM.
With `C[C@H]1CN(Cc2ccc(C#N)cc2)C(=O)c2cc(-c3c(Br)cc(Cl)cc3CO)nn21` [Compound I-0361], the IC50 fell in the range of 100 to 1000 nM.
Regarding `CCCCC1CN(Cc2ccc(C#N)cc2)C(=O)c2cc(N(C)Cc3ccc(Cl)cc3)nn21` (centres unmarked) [Compound I-0301], the IC50 was ≥ 1000 nM.
Take `CCCCCC1CN(CC(=O)Nc2ccccn2)C(=O)c2cc(-c3ccc(Cl)cc3)nn21` (centres unmarked) [Compound I-0073]: the IC50 is ≥ 1000 nM.
For the molecule `CC(=O)Nc1cc(C#N)ccc1-c1cc2n(n1)[C@@H](C)CN(Cc1cccc(C(=O)O)c1)C2=O` [Compound I-0344], the IC50 is < 10 nM.
With `CCCCCC1CN(CC(=O)N2CCC(C(=O)NC3(C#N)CC3)CC2)C(=O)c2cc(-c3ccc(Cl)cc3)nn21` (centres unmarked) [Compound I-0295], the IC50 was in the range of 10 to 100 nM.
The value for `C[C@H]1CN(CC(=O)NCCCC(=O)O)C(=O)c2cc(-c3ccc(Cl)cc3)nn21` [Compound I-0157] was ≥ 1000 nM; that for `CCCCC1CN(CNC(=O)CC#N)C(=O)c2cc(-c3ccc(Cl)cc3)nn21` (centres unmarked) [Compound I-0289] was 10 to 100 nM; that for `CCCCCC1CN(Cc2ccc(Oc3ccccc3)cc2)C(=O)c2cc(-c3ccc(Cl)cc3)nn21` (centres unmarked) [Compound I-0146] was ≥ 1000 nM.
As for `CCOC(=O)CN1CC(CC(F)(F)F)n2nc(-c3ccc(Cl)cc3)cc2C1=O` (centres unmarked) [Compound I-0023], the figure is ≥ 1000 nM; as for `CCCCCC1CN(Cc2cccc(C)c2)C(=O)c2cc(-c3ccc(Cl)cc3)nn21` (centres unmarked) [Compound I-0128], ≥ 1000 nM; as for `CCCCC1CN(CCOc2ccccc2)C(=O)c2cc(-c3ccc(Cl)cc3)nn21` (centres unmarked) [Compound I-0270], 100 to 1000 nM.
Take `CCCCCC1CN(Cc2cccc(C#N)c2)C(=O)c2cc(-c3ccc(Cl)cc3)nn21` (centres unmarked) [Compound I-0131]: the IC50 was 100 to 1000 nM.
The value for `C[C@H]1CN(Cc2ccc(CC(=O)O)cc2)C(=O)c2cc(-c3ccc(Cl)cc3)nn21` [Compound I-0170] was 10 to 100 nM; that for `CNC(=O)Nc1cc(Cl)ccc1-c1cc2n(n1)[C@@H](C)CN(Cc1ccc(C#N)cc1)C2=O` [Compound I-0342] was 100 to 1000 nM; that for `CCCCCC1CN(CC(=O)N2CCCC2Cc2ccccc2)C(=O)c2cc(-c3ccc(Cl)cc3)nn21` (centres unmarked) [Compound I-0072] was ≥ 1000 nM.
Turning to `CCCCC1CN(CC2CN(CC#N)C(=O)O2)C(=O)c2cc(-c3ccc(Cl)cc3)nn21` (centres unmarked) [Compound I-0299], the IC50 lay in the range of 10 to 100 nM.
For `CCOC(=O)CN1CC(CC)n2nc(-c3ccc(Cl)cc3)cc2C1=O` (centres unmarked) [Compound I-0017], the IC50 is ≥ 1000 nM.
Consider `CCCCC1CN(CC(=O)N2[C@@H]3CC[C@H]2C[C@@H](O)C3)C(=O)c2cc(-c3ccc(Cl)cc3)nn21` (some centres unmarked) [Compound I-0238], for which the IC50 fell in the range of 100 to 1000 nM.
On to `CCCCC1CN(Cc2ccc(C#N)cc2)C(=O)c2cc(-c3ccc(Cl)cc3N)nn21` (centres unmarked) [Compound I-0281], for which the half-maximal inhibitory concentration (IC50) fell in the range of 100 to 1000 nM.
As for `CCCCCC1CN(CC(=O)N2CCCCC2CC)C(=O)c2cc(-c3ccc(Cl)cc3)nn21` (centres unmarked) [Compound I-0091], the IC50 was 100 to 1000 nM.
For `O=C(O)C1CCN(C(=O)CN2C(=O)c3cc(-c4ccc(Cl)cc4)nn3[C@H]3CCC[C@H]32)CC1` [Compound I-0012], the IC50 is 100 to 1000 nM.
For `CCCCC1CN(CC(=O)N[C@@H]2CCC[C@H]2O)C(=O)c2cc(-c3ccc(Cl)cc3)nn21` (some centres unmarked) [Compound I-0245], the IC50 lay in the range of 100 to 1000 nM.
With `CCCOCC1CN(CC(=O)N2CCC(C(=O)O)CC2)C(=O)c2cc(-c3ccc(Cl)cc3)nn21` (centres unmarked) [Compound I-0319], the IC50 was < 10 nM.
For the molecule `CCCC(NC(=O)CN1C[C@H](C)n2nc(-c3ccc(Cl)cc3)cc2C1=O)C(=O)O` (some centres unmarked) [Compound I-0161], the IC50 lay within 100 to 1000 nM.
As to `CCCCCC1CN(Cc2ccc(C#N)cc2)C(=O)c2cc(C(=O)N3CCC(C#N)CC3)nn21` (centres unmarked) [Compound I-0180], the IC50 is ≥ 1000 nM.
In the case of `CC(=O)NC1=C(c2cc3n(n2)[C@@H](C)CN(Cc2ccc(C#N)cc2)C3=O)CCC(C(F)(F)F)C1` (some centres unmarked) [Compound I-0366], the IC50 is 10 to 100 nM.
Turning to `CCNc1cc(Cl)cc(CO)c1-c1cc2n(n1)[C@@H](C)CN(Cc1ccc(C#N)cc1)C2=O` [Compound I-0356], the IC50 is < 10 nM.
With `CCCCCC1CN(CC(=O)NCCCCCC(=O)O)C(=O)c2cc(-c3ccc(Cl)cc3)nn21` (centres unmarked) [Compound I-0046], the IC50 lay in the range of 100 to 1000 nM.
Consider `O=C1NCC(COCc2ccccc2)n2nc(-c3ccc(Cl)cc3)cc21` (centres unmarked) [Compound I-0024], for which the IC50 is ≥ 1000 nM.
As for `CCCCCC1CN(Cc2cccc(C(=O)O)n2)C(=O)c2cc(-c3ccc(Cl)cc3)nn21` (centres unmarked) [Compound I-0184], the IC50 is < 10 nM.
Consider `C[C@H]1CN(CC(=O)N(C)CCC#N)C(=O)c2cc(-c3ccc(C#N)cc3NC(=O)CO)nn21` [Compound I-0360], for which the IC50 lay in the range of 100 to 1000 nM.
The value for `O=C(O)c1cccc(CN2C(=O)c3cc(-c4ccc(Cl)cc4)nn3[C@H]3CCC[C@H]32)c1` [Compound I-0149] was 100 to 1000 nM; that for `CC(=O)Nc1cc(C#N)ccc1-c1cc2n(n1)[C@@H](C)CN(CC1CCCO1)C2=O` (some centres unmarked) [Compound I-0362] was 10 to 100 nM; that for `CCCCC1CN(CC(=O)N2CCC[C@H](C)C2)C(=O)c2cc(-c3ccc(Cl)cc3)nn21` (some centres unmarked) [Compound I-0242] was 100 to 1000 nM.
For `CCCCC1CN(CC2CN(C(C)C)C(=O)O2)C(=O)c2cc(-c3ccc(Cl)cc3)nn21` (centres unmarked) [Compound I-0275], the IC50 fell in the range of 10 to 100 nM.
As for `CCCCCC1CN(CC(=O)N2CCC(C(=O)O)CC2)C(=O)c2cc(-c3ccc(Cl)cc3)nn21` (centres unmarked) [Compound I-0007], the figure is < 10 nM.
As for `CCCCCC1CN(CC(=O)N2CCNCC2)C(=O)c2cc(-c3ccc(Cl)cc3)nn21` (centres unmarked) [Compound I-0100], the figure is 100 to 1000 nM.
As for `CCCCCC1CN(CC(=O)N2CCC(C(N)=O)C2)C(=O)c2cc(-c3ccc(Cl)cc3)nn21` (centres unmarked) [Compound I-0112], the figure is 100 to 1000 nM.
Turning to `N#Cc1ccc(CN2CC3CC/C=C\CC(=O)Nc4cc(Cl)ccc4-c4cc(n3n4)C2=O)cc1` (centres unmarked) [Compound I-0358], the IC50 fell in the range of 10 to 100 nM.
`CC(=O)Nc1cc(Cl)ccc1-c1cc2n(n1)[C@@H](C)CN(Cc1ccc(C#N)cc1)C2=O` [Compound I-0285]: the IC50 was < 10 nM.
`CCCCCC1CN(CC(=O)N2CCC(CO)CC2)C(=O)c2cc(-c3ccc(Cl)cc3)nn21` (centres unmarked) [Compound I-0096]: the IC50 lay in the range of 100 to 1000 nM.
Take `CC(=O)Nc1cc(C#N)ccc1-c1cc2n(n1)[C@@H](C)CN(Cc1ccc(C#N)cc1)C2=O` [Compound I-0335]: the IC50 is < 10 nM.
For `CNC(=O)Cc1cc(Cl)ccc1-c1cc2n(n1)[C@@H](C)CN(Cc1ccc(C#N)cc1)C2=O` [Compound I-0336], the IC50 was ≥ 1000 nM.
For the molecule `CC(=O)NC1=C(c2cc3n(n2)[C@@H](C)CN(Cc2ccc(C#N)cc2)C3=O)C(O)CC(C(F)(F)F)C1` (some centres unmarked) [Compound I-0369], the IC50 was 100 to 1000 nM.
In the case of `CCCCC1CN(Cc2ccc(C#N)cc2)C(=O)c2cc(-c3ccc(OC(F)(F)F)cc3CC#N)nn21` (centres unmarked) [Compound I-0192], the IC50 lay within 100 to 1000 nM.
Regarding `CCCCCC1CN(CC(=O)N2CCCC(O)C2)C(=O)c2cc(-c3ccc(Cl)cc3)nn21` (centres unmarked) [Compound I-0092], the IC50 was in the range of 100 to 1000 nM.
The value for `C[C@H]1CN(Cc2ccc(C#N)cc2)C(=O)c2cc(-c3ccc(Cl)cc3F)nn21` [Compound I-0327] was ≥ 1000 nM; that for `N#Cc1ccc(CN2CC3CCCCCC(=O)Nc4cc(Cl)ccc4-c4cc(n3n4)C2=O)cc1` (centres unmarked) [Compound I-0355] was < 10 nM; that for `CCCCC1CN(CC(=O)N2[C@H](C)COC[C@@H]2C)C(=O)c2cc(-c3ccc(Cl)cc3)nn21` (some centres unmarked) [Compound I-0223] was 100 to 1000 nM.
Turning to `CCCCC1CN(Cc2cccnc2)C(=O)c2cc(-c3ccc(Cl)cc3)nn21` (centres unmarked) [Compound I-0255], the IC50 was 10 to 100 nM.
The value for `CCCCC1CNC(=O)c2cc(-c3ccc(Cl)cc3)nn21` (centres unmarked) [Compound I-0197] was ≥ 1000 nM; that for `C[C@H]1CN(Cc2ccc(C#N)cc2)C(=O)c2cc(-c3ccc(Cl)cc3CO)nn21` [Compound I-0297] was 100 to 1000 nM; that for `CCCCCC1CN(CC(=O)NCCCCC(=O)O)C(=O)c2cc(-c3ccc(Cl)cc3)nn21` (centres unmarked) [Compound I-0061] was 10 to 100 nM.
For `C[C@H]1CN(Cc2ccccc2OCCCN(C)C)C(=O)c2cc(-c3ccc(Cl)cc3)nn21` [Compound I-0168], the IC50 is ≥ 1000 nM.
For `CCCCC1CN(CC(=O)N2CCOC(C#N)C2)C(=O)c2cc(-c3ccc(Cl)cc3)nn21` (centres unmarked) [Compound I-0239], the IC50 lay in the range of 10 to 100 nM.
As for `CCCCNC(=O)CN1C[C@H](C)n2nc(-c3ccc(Cl)cc3)cc2C1=O` [Compound I-0153], the figure is ≥ 1000 nM.

Broadly, the IC50 is the concentration needed to halve the response being measured.

These data come from patent publication US10189843B2, “Fused pyrazole derivative having autotaxin inhibitory activity” (The University of Tokyo, priority 2014, dated 2019).
